Test [1] addresses AMPA receptor GluA1/GluA2 (Rattus norvegicus, UniProt P19490+P19491). Kind of test: Two-electrode voltage clamp of AMPA receptor in Xenopus laevis oocytes. It counts as cell-based. Particulars: 100 µM CDC; n = 6. The source says: (§1) The resulting EC50 or IC50 values were averaged.
In general terms: Two-electrode voltage clamp is typically applied to oocytes expressing channels or transporters.

The next test addresses GluN3B Ser701 to Ala (Mus musculus, UniProt Q91ZU9, S701A). Kind of test: Two-electrode voltage clamp of GluN3B point mutant Ser701 to Ala in oocytes. It counts as cell-based. Particulars: for Increase in block for the mutant compared with wild type: 100 µM bile salt, n = 11–13.
Description: as §1

A further test concerns the target kainate receptor GluK2 (Rattus norvegicus, UniProt P42260). Kind of test: Two-electrode voltage clamp of kainate receptor in Xenopus laevis oocytes. Conditions: 100 µM CDC; after block of desensitization with ConA; n = 3. In kind it is cell-based.
Description: as §1

A further test addresses GluN1/GluN2D receptors (Rattus norvegicus, UniProt P35439+Q62645). Kind of test: Two-electrode voltage clamp of recombinant NMDARs in Xenopus laevis oocytes (GluN2D). Conditions: for IC50: read-out: IC50 Tauro-CDC.
For the next test, the target named is GluN3B Tyr505 to Ala (Mus musculus, UniProt Q91ZU9, Y505A). Conditions: n = 9.
GluN3B Tyr505 to Ala, sequence (Q91ZU9 25-1003 Y505A, other chains not shown): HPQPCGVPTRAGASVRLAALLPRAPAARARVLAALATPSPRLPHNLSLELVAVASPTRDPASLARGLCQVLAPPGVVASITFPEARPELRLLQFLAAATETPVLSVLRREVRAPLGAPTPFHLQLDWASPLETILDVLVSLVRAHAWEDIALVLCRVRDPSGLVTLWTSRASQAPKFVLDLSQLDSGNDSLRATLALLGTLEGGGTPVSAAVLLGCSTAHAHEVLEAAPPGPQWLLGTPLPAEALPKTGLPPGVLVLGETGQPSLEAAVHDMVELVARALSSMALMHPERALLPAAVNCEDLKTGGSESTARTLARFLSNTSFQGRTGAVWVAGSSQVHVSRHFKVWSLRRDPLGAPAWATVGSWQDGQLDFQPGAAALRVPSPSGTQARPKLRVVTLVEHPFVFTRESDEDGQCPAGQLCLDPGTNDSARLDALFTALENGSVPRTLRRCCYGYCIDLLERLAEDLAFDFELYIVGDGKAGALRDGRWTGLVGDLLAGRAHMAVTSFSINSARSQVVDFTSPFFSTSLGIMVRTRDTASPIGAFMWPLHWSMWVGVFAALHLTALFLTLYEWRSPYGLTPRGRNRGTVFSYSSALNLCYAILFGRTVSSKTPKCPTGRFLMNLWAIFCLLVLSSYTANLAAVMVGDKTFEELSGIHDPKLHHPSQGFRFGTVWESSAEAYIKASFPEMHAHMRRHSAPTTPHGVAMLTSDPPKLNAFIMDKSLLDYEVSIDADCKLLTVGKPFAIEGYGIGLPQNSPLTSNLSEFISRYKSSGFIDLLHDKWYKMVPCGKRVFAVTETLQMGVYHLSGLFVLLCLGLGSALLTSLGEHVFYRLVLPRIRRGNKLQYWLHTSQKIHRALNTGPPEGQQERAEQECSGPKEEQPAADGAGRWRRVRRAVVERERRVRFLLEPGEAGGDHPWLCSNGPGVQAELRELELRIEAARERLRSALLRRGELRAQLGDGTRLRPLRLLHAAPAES
For another test, the target named is GluN1/GluN3B receptors (Mus musculus, UniProt Q91ZU9). Kind of test: Two-electrode voltage clamp of recombinant NMDARs in Xenopus laevis oocytes (GluN3B). Conditions: for maximum block by tauro-CDC / IC50: n = 6; for IC50: read-out: mean IC50 for tauro-CDC.
GluN1/GluN3B receptors, sequence (Q91ZU9 25-1003, other chains not shown): as the sequence (Q91ZU9 25-1003 Y505A, other chains not shown) above, with A481Y counted along it
The test system of the next test is NMDAR. Further details: method as in PMID 1372086. Conditions: read-out: reported EC50; cited from earlier work.
The test system of the next test is uninjected oocytes. Kind of test: Agonist application to uninjected oocytes. It counts as cell-based, Xenopus laevis. Conditions: n = 3.
Description: as §1

Read-outs that look alike come from different tables or passages of the source.

GluN3B Ser701 to Ala, sequence (Q91ZU9 25-1003 S701A, other chains not shown): as the sequence (Q91ZU9 25-1003 Y505A, other chains not shown) above, with A481Y, S677A counted along it
GluN1/GluN2D receptors, sequence (Q62645 28-1323, other chains not shown): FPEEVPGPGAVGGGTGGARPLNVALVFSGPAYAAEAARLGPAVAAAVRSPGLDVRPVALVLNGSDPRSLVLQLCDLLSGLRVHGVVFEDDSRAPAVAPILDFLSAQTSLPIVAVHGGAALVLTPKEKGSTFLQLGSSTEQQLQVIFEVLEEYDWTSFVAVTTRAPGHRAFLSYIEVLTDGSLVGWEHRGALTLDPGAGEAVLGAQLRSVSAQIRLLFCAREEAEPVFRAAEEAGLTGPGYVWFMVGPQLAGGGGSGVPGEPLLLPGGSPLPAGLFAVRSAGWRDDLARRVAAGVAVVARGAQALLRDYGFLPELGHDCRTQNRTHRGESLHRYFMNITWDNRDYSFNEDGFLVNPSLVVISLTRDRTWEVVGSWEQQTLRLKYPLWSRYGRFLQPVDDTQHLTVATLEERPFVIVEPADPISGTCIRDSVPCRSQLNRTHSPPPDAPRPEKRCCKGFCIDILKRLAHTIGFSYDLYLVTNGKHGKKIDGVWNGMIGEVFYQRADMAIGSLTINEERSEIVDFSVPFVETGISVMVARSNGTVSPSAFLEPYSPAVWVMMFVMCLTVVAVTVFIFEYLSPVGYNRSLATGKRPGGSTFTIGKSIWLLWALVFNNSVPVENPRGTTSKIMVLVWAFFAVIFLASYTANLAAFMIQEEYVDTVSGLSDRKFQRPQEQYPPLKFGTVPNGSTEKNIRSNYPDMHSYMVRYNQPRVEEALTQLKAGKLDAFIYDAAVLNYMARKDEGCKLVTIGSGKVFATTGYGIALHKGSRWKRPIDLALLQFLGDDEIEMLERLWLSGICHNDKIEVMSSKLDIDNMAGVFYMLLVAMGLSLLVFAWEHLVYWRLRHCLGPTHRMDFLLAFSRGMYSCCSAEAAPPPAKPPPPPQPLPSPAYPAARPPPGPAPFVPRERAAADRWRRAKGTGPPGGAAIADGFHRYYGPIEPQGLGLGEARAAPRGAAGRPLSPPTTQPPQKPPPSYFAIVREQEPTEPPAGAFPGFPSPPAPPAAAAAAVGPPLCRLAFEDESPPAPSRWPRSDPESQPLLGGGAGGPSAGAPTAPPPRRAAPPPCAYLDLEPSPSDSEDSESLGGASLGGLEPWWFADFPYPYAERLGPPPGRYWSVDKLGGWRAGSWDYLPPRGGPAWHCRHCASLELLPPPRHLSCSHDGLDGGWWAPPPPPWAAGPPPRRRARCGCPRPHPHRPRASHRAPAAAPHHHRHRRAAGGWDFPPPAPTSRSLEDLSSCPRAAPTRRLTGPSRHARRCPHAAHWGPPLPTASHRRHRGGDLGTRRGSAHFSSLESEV
kainate receptor GluK2, sequence (P42260 32-908): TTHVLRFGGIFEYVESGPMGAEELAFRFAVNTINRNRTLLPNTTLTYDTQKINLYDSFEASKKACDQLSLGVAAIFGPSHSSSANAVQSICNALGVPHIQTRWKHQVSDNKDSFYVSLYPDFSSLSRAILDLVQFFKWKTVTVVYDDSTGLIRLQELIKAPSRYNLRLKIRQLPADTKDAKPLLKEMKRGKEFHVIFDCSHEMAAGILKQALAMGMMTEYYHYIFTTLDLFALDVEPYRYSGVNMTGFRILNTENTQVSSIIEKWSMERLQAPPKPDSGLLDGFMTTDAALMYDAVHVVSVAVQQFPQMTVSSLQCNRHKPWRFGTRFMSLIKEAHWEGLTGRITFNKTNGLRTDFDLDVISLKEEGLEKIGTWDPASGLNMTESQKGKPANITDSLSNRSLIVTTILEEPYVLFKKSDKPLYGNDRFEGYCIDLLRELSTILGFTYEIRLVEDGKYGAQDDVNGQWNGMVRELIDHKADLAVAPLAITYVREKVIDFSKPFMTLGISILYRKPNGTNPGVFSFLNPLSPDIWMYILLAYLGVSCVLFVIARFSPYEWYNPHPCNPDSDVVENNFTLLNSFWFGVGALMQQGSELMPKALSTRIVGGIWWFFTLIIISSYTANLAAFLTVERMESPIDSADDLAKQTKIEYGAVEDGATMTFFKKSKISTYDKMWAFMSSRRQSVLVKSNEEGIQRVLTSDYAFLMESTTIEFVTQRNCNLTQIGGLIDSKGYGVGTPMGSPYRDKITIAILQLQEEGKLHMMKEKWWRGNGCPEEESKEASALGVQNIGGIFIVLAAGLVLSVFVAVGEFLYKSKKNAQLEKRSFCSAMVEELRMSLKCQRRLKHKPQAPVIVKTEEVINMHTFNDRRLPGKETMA
AMPA receptor GluA1/GluA2, sequence (P19490 19-907): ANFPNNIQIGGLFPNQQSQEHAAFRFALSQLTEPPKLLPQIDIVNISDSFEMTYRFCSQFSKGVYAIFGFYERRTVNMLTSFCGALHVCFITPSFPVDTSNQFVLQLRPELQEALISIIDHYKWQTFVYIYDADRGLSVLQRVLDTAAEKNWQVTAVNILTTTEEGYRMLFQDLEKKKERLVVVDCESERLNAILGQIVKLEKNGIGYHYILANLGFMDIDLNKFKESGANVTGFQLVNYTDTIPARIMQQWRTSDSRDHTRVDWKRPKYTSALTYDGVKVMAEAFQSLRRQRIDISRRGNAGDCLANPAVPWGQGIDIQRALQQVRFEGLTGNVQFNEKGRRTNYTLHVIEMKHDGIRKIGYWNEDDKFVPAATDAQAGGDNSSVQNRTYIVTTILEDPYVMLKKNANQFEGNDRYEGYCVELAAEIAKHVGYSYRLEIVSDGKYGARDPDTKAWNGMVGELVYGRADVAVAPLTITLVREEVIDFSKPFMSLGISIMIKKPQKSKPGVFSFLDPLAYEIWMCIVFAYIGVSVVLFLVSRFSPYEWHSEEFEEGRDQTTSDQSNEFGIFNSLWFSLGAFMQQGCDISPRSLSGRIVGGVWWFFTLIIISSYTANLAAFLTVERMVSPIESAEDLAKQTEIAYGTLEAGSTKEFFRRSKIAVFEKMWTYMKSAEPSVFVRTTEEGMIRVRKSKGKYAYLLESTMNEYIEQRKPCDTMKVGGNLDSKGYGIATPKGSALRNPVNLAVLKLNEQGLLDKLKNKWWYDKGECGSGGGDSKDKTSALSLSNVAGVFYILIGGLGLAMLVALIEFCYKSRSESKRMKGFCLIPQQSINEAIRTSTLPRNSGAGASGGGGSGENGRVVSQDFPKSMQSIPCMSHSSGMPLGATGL
AMPA receptor GluA1/GluA2, sequence (P19491 22-883): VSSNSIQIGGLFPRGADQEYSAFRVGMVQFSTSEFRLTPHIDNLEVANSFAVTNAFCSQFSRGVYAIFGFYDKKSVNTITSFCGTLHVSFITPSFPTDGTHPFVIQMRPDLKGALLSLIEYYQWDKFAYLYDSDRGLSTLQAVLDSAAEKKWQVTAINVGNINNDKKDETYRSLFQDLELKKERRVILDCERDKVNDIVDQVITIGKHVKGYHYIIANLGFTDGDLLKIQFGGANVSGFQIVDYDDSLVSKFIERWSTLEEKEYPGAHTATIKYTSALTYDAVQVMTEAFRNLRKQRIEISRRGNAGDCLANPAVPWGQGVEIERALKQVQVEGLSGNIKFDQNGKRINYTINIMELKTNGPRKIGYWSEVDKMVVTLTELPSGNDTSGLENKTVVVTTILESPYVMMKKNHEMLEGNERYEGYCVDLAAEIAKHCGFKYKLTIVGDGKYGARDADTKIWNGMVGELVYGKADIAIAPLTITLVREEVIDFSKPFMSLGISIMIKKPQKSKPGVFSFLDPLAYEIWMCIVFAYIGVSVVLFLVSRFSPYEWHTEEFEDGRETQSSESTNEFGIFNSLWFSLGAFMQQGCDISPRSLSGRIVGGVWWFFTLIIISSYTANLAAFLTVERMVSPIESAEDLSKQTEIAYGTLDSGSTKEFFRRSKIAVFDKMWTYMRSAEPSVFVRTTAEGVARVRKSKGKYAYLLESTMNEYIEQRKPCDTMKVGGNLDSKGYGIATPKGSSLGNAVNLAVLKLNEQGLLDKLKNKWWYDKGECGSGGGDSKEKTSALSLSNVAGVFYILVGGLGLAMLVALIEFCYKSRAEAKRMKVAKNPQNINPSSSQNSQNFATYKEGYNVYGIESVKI
Description for GluN1/GluN2D receptors: (§2) The cDNAs coding for NMDA and kainate receptors, subcloned into pSGEM for expression in Xenopus laevis oocytes, were kindly provided by Michael Hollmann (Ruhr University Bochum). AMPA receptor cDNAs were inserted in pGEM-HE for cRNA synthesis. The following cDNAs were used: GluN1-1a (U08261), GluN2A (NM_012573), GluN2B (NM_012574), GluN2D (U08260), GluN3B (NM_130455), GluK2 (NM_019309), GluA1 (NM_031608) and GluA2 (M38061). These cDNAs are from rat except for GluN3B, which is from mouse. Point mutants were generated by polymerase chain reaction (PCR)-directed mutagenesis with specific mismatch primers (biomers.net). cRNA was synthesized from 1 µg of linearized plasmid DNA using an in vitro transcription kit (mMESSAGE mMACHINE® T7 Transcription Kit, Thermo Fisher Scientific).
(§3) Oocytes were obtained from parts of the ovaries surgically removed from Xenopus laevis in accordance with German law and approved by the local authorities of the Heinrich Heine University of Düsseldorf. Lumps of around 20 oocytes were incubated with 10 mg/ml collagenase type 2 (Worthington Biochemical Corporation) for 1–1.5 h in Ca^2+-free Barth’s solution (in mM: 88 NaCl, 1 KCl, 2.4 NaHCO3, 0.82 MgSO4, 20 HEPES, pH adjusted to 7.5 with NaOH) with slow agitation to remove the follicular cell layer and then washed extensively with Barth’s solution containing Ca^2+ (in mM: 88 NaCl, 1 KCl, 2.4 NaHCO3, 0.82 MgSO4, 0.41 CaCl2, 0.33 Ca(NO3)2, 20 HEPES, pH adjusted to 7.5 with NaOH) to inactivate the collagenase. Oocytes were maintained in Barth’s solution charged with antibiotic and antimycotic solution (containing penicillin, streptomycin and amphotericin B, Sigma-Aldrich) at 18 °C. Alternatively, Xenopus laevis oocytes were purchased from EcoCyte Bioscience (Castrop-Rauxel, Germany). Within 24 h after surgery, oocytes of stages V-VI were injected with 3.8 ng GluN1 and 5 ng GluN2A or GluN2B cRNAs, 7.6 ng GluN1 and 10 ng GluN2D cRNA or 7.6 ng GluN1 and 6.4 ng GluN3B-cRNA per oocyte (molecular GluN1 to GluN2 ratio: 1:1; GluN1 to GluN3 ratio: 1:1) using a Micro4 nanoliter injector (World Precision Instruments, Sarasota, FL, USA).
(§4) Two-electrode voltage clamp recordings of oocyte current responses were performed 3–5 days after cRNA injection at −70 mV holding potential with a Turbo Tec-03X amplifier (npi electronic, Germany) controlled by Pulse software (HEKA, Germany). Electrodes were filled with 3 M KCl and had resistances of 0.5–1.5 MΩ. […] Agonists and bile salts were applied for 20–40 s by superfusion. Agonist and bile salt blocker potencies were determined by recording current responses induced by the application of increasing agonist concentrations or increasing bile salt concentration to the same oocyte. Agonist-induced currents were normalized to the maximum response under saturating agonist concentration. In case of inhibition by bile salts the relative reduction in agonist-induced current was determined. Data from each oocyte was fitted separately to the Hill equation using Origin 9 software. The resulting EC50 or IC50 values were averaged. Current-voltage relationships were determined by ramping the holding potential from −140 mV to +50 mV corrected for background conductivities. Data are reported as mean ± standard error of the mean (SEM). Statistical significance was determined using the unpaired, two-tailed Student’s t-test.
Description for GluN1/GluN3B receptors: as §2, §3, §4
Description for GluN3B Tyr505 to Ala: AMPA receptor cDNAs were inserted in pGEM-HE for cRNA synthesis. The following cDNAs were used: GluN1-1a (U08261), GluN2A (NM_012573), GluN2B (NM_012574), GluN2D (U08260), GluN3B (NM_130455), GluK2 (NM_019309), GluA1 (NM_031608) and GluA2 (M38061). These cDNAs are from rat except for GluN3B, which is from mouse. Point mutants were generated by polymerase chain reaction (PCR)-directed mutagenesis with specific mismatch primers (biomers.net). cRNA was synthesized from 1 µg of linearized plasmid DNA using an in vitro transcription kit (mMESSAGE mMACHINE® T7 Transcription Kit, Thermo Fisher Scientific). […]
Two-electrode voltage clamp recordings of oocyte current responses were performed 3–5 days after cRNA injection at −70 mV holding potential with a Turbo Tec-03X amplifier (npi electronic, Germany) controlled by Pulse software (HEKA, Germany). […] Agonist and bile salt blocker potencies were determined by recording current responses induced by the application of increasing agonist concentrations or increasing bile salt concentration to the same oocyte. […] In case of inhibition by bile salts the relative reduction in agonist-induced current was determined. […] Current-voltage relationships were determined by ramping the holding potential from −140 mV to +50 mV corrected for background conductivities. […] Statistical significance was determined using the unpaired, two-tailed Student’s t-test.

For `C[C@H](CCC(=O)O)[C@H]1CC[C@H]2[C@@H]3[C@H](O)C[C@@H]4C[C@H](O)CC[C@]4(C)[C@H]3CC[C@]12C` [CDC, chenodeoxycholate], in test [1], the “Reduction of GluA1/GluA2 currents” value was found to be 7 ± 1%. In addition, the “Increase in block for the mutant compared with wild type” value on GluN3B Ser701 to Ala is listed as 15%. Also, the “Inhibition of glutamate-induced steady-state GluK2 current” value at kainate receptor GluK2 is given as “no inhibition”.
For the compound `N[C@@H](CCC(=O)O)C(=O)O` [Glu, glutamate], the “max. Glu-induced current [normalized]” value is on record as 1.00 ± 0.17 (7) on GluN1/GluN2D receptors (10 µM Gly) and 0.25 ± 0.06 (7) at GluN1/GluN2D receptors (10 µM Gly + 180 µM Tauro-CDC).
On to `NCC(=O)O` [Gly, glycine], for which the “Activation of mutant receptor by agonist” value on GluN3B Tyr505 to Ala is on record as “could not be activated”. Also, the glycine-induced currents at GluN3B Ser701 to Ala (Ser701 to Ala mutant, n = 29) is recorded as 106 ± 12 nA; on GluN1/GluN3B receptors (wild type, n = 30), 835 ± 85 nA.
Regarding `N[C@@H](CCS(=O)(=O)O)C(=O)O` [L-HCA, L-homocysteic acid], the EC50 (as a rule, the concentration at which the effect is half-maximal) in the test with NMDAR is 13 µM. The “Activation of GluN3B by agonist” value at GluN1/GluN3B receptors (concentrations of up to 1 mM, n = 4) is on record as “could not be activated”.
With `O=C(O)c1cccnc1C(=O)O` [QN, quinolinic acid], the EC50 in the test with NMDAR is 7200 µM. In the test on uninjected oocytes, the “Effect on uninjected oocytes” value is on record as “no effect”.
Consider `C[C@H](CCC(=O)NCCS(=O)(=O)O)[C@H]1CC[C@H]2[C@@H]3[C@H](O)C[C@@H]4C[C@H](O)CC[C@]4(C)[C@H]3CC[C@]12C` [Tauro-CDC], for which, on GluN3B Ser701 to Ala, the “Increase in block for the mutant compared with wild type” value came out at 15%. The “max. block by Tauro-CDC” value at GluN1/GluN2D receptors (10 µM Gly, 0.51 µM Glu) is 100 ± 4 (11) %; at GluN1/GluN2D receptors (10 µM Gly, 150 µM Glu), 87 ± 3 (13) %; on GluN1/GluN2D receptors ([…] Gly, 150 µM Glu), 98 ± 3 (8) %. Besides, on GluN1/GluN2D receptors (100 µM tauro-CDC, L-HCA 13 µM, 10 µM glycine co-agonist, n = 12), the “Block of L-HCA-induced GluN2D currents” value is given as 30 ± 2%. Further, on GluN1/GluN2D receptors (100 µM tauro-CDC, QN 1 mM, 10 µM glycine co-agonist, n = 7), the “Inhibition of QN-induced GluN2D currents” value is 29 ± 2%. Besides, the “Reduction of QN-induced GluN2D currents” value at GluN1/GluN2D receptors (100 µM tauro-CDC, QN 7.2 mM, 10 µM glycine co-agonist, n = 7) came to 26 ± 2%. The “Effect in the absence of NMDAR agonists (partial agonist action)” value is “no effects” on GluN1/GluN2D receptors (100 µM tauro-CDC, n = 4) and “no effects” at GluN1/GluN3B receptors (100 µM tauro-CDC, n = 4). The “Effect on I/V relationship and reversal potential of agonist-induced currents” value is “did neither change the shape of I/V relationships nor did it shift the reversal potentials” on GluN1/GluN2D receptors (100 µM tauro-CDC, n = 10–11) and “did neither change the shape of I/V relationships nor did it shift the reversal potentials” at GluN1/GluN3B receptors (100 µM tauro-CDC, n = 10–11). Moreover, the IC50 (in general, the concentration that inhibits the measured activity by half) on GluN1/GluN2D receptors (10 µM Gly, 0.51 µM Glu) amounted to 137 ± 8 µM; on GluN1/GluN2D receptors (10 µM Gly, 150 µM Glu (saturating agonist concentration)), 179 ± 11 µM; at GluN1/GluN2D receptors ([…] Gly, 150 µM Glu), 153 ± 8 µM; on GluN1/GluN3B receptors (in the presence of 5 μM glycine) it was 44 ± 7 µM; at GluN1/GluN3B receptors (in the presence of 10 μM glycine), 83 ± 8 µM. Further, the “maximum block by tauro-CDC” value was found to be 92 ± 3% at GluN1/GluN3B receptors (5 μM glycine) and 95 ± 3% at GluN1/GluN3B receptors (10 μM glycine). Also, the “Reduction of QN-induced GluN3B currents” value at GluN1/GluN3B receptors (tauro-CDC 100 µM, QN 7.2 mM, n = 5) is reported as “about 68 ± 4%”.
